# Reference: ChEMBL document CHEMBL4033728, “Synthesis and structure-activity relationship study of novel quinazolinone-based inhibitors of MurA” (Bioorg Med Chem Lett, 2017)
# Test system: Escherichia coli
# Experiment: Antibacterial activity against Escherichia coli
# Assay type: functional
row,Compound,MIC [µg/mL]
1,C[C@@H]1O[C@@H]1P(=O)(O)O [FOSFOMYCIN],16
2,Cn1cc[n+](C(Cn2cnc3ccc(Cl)cc3c2=O)c2cc3cc(Br)ccc3o2)c1.[Cl-] (stereo not drawn),128

# Test system: Escherichia coli
# Experiment: Inhibition of Escherichia coli MurA assessed as residual enzyme activity at 100 uM using UDP-GlcNAc and PEP as substrate incubated for 15 mins by Malachite green method
row,Compound,Activity [%]
1,COC(=O)c1ccc(COc2ccc(-c3nc4ccccc4c(=O)[nH]3)cc2)cc1,100
2,O=c1[nH]c(-c2ccc([N+](=O)[O-])cc2)nc2ccccc12,99
3,COC(=O)Cn1c(-c2ccco2)nc2ccccc2c1=O,66
4,Oc1nc(-c2ccc(F)cc2)nc2ccccc12,89
5,O=c1[nH]c(-c2ccc(F)c(F)c2)nc2ccccc12,67
6,O=c1[nH]c(-c2ccoc2)nc2ccccc12,91
7,Oc1nc(-c2cccs2)nc2ccccc12,83
8,O=c1[nH]c(-c2cccc(OCc3ccc(C(F)(F)F)cc3)c2)nc2ccccc12,88
9,Oc1nc(-c2ccncc2)nc2ccccc12,82
10,O=c1[nH]c(-c2cn3ccsc3n2)nc2ccccc12,82
11,O=c1[nH]c(-c2ccc(Cn3cncn3)nc2)nc2ccccc12,80
12,O=c1[nH]c(-c2ccc3ccccc3n2)nc2ccccc12,100
13,O=c1[nH]c(-c2ccc(CO)o2)nc2ccccc12,99
14,O=c1[nH]c(-c2ccc(O)cc2)nc2ccccc12,91
15,O=c1[nH]c(-c2cccc(Br)n2)nc2ccccc12,91
16,O=c1[nH]c(-c2cc(F)cc3c2OCOC3)nc2ccccc12,99

row,Compound,Activity [%]
1,O=C(O)c1ccc(COc2ccc(-c3nc4ccccc4c(=O)[nH]3)cc2)cc1,92
2,O=c1[nH]c(-c2cccc(Cl)c2)nc2ccccc12,68
3,N#Cc1cccc(-c2nc3ccccc3c(=O)[nH]2)c1,62
4,O=c1[nH]c(-c2ccc(N3CCOCC3)nc2)nc2ccccc12,64
5,Cc1ccc(COc2ccc(-c3nc4ccccc4c(=O)[nH]3)cc2)cc1,97
6,CC(C)n1c(-c2ccco2)nc2ccccc2c1=O,93
7,COC(=O)c1cccc(COc2ccc(-c3nc4ccccc4c(=O)[nH]3)cc2)c1,100
8,COc1ccc(-c2nc(O)c3ccccc3n2)cc1,71
9,O=c1[nH]c(-c2ccnc(N3CCOCC3)c2)nc2ccccc12,70
10,O=c1[nH]c(-c2ccc(O)cc2)nc2ccsc12,80
11,O=C(O)c1cccc(COc2ccc(-c3nc4ccccc4c(=O)[nH]3)cc2)c1,85
12,O=c1[nH]c(-c2cccc(Br)c2)nc2ccccc12,65
13,COc1ccc2occ(-c3nc4ccccc4c(=O)[nH]3)c(=O)c2c1,100
14,O=c1c2ccccc2nc(-c2ccco2)n1Cc1ccccc1,100
15,O=c1[nH]c(-c2ccc(-c3ccncc3)cc2)nc2ccccc12,100

# Test system: not listed separately
# Experiment: Inhibition of Escherichia coli MurA
row,Compound,IC50 [µM]
1,C[C@@H]1O[C@@H]1P(=O)(O)O [FOSFOMYCIN],8.8

# Test system: Staphylococcus aureus
# Experiment: Antibacterial activity against Staphylococcus aureus ATCC 29213 incubated for 18 to 24 hrs by broth microdilution method
# Assay type: functional
row,Compound,MIC [µg/mL]
1,COC(=O)c1ccc(COc2ccc(-c3nc4ccccc4c(=O)[nH]3)cc2)cc1,> 128
2,O=c1[nH]c(-c2ccc([N+](=O)[O-])cc2)nc2ccccc12,> 128
3,COC(=O)Cn1c(-c2ccco2)nc2ccccc2c1=O,> 128
4,Oc1nc(-c2ccc(F)cc2)nc2ccccc12,> 128
5,O=c1[nH]c(-c2ccc(F)c(F)c2)nc2ccccc12,> 128
6,O=c1[nH]c(-c2ccoc2)nc2ccccc12,> 128
7,Oc1nc(-c2cccs2)nc2ccccc12,> 128
8,O=c1[nH]c(-c2cccc(OCc3ccc(C(F)(F)F)cc3)c2)nc2ccccc12,> 128
9,Oc1nc(-c2ccncc2)nc2ccccc12,> 128
10,O=c1[nH]c(-c2cn3ccsc3n2)nc2ccccc12,128
11,O=c1[nH]c(-c2ccc(Cn3cncn3)nc2)nc2ccccc12,> 128
12,O=c1[nH]c(-c2ccc3ccccc3n2)nc2ccccc12,> 128
13,O=c1[nH]c(-c2ccc(CO)o2)nc2ccccc12,> 128
14,O=c1[nH]c(-c2ccc(O)cc2)nc2ccccc12,> 128
15,O=c1[nH]c(-c2cccc(Br)n2)nc2ccccc12,> 128
16,O=c1[nH]c(-c2cc(F)cc3c2OCOC3)nc2ccccc12,> 128

row,Compound,MIC [µg/mL]
1,O=C(O)c1ccc(COc2ccc(-c3nc4ccccc4c(=O)[nH]3)cc2)cc1,> 128
2,O=c1[nH]c(-c2cccc(Cl)c2)nc2ccccc12,> 128
3,N#Cc1cccc(-c2nc3ccccc3c(=O)[nH]2)c1,> 128
4,O=c1[nH]c(-c2ccc(N3CCOCC3)nc2)nc2ccccc12,> 128
5,Cc1ccc(COc2ccc(-c3nc4ccccc4c(=O)[nH]3)cc2)cc1,> 128
6,CC(C)n1c(-c2ccco2)nc2ccccc2c1=O,32
7,COC(=O)c1cccc(COc2ccc(-c3nc4ccccc4c(=O)[nH]3)cc2)c1,> 128
8,COc1ccc(-c2nc(O)c3ccccc3n2)cc1,> 128
9,O=c1[nH]c(-c2ccnc(N3CCOCC3)c2)nc2ccccc12,> 128
10,O=c1[nH]c(-c2ccc(O)cc2)nc2ccsc12,> 128
11,O=C(O)c1cccc(COc2ccc(-c3nc4ccccc4c(=O)[nH]3)cc2)c1,> 128
12,O=c1[nH]c(-c2cccc(Br)c2)nc2ccccc12,> 128
13,COc1ccc2occ(-c3nc4ccccc4c(=O)[nH]3)c(=O)c2c1,> 128
14,O=c1c2ccccc2nc(-c2ccco2)n1Cc1ccccc1,> 128
15,O=c1[nH]c(-c2ccc(-c3ccncc3)cc2)nc2ccccc12,> 128

# Test system: Staphylococcus aureus
# Experiment: Antibacterial activity against Staphylococcus aureus
# Assay type: functional
row,Compound,MIC [µg/mL]
1,C[C@@H]1O[C@@H]1P(=O)(O)O [FOSFOMYCIN],16
2,Cn1cc[n+](C(Cn2cnc3ccc(Cl)cc3c2=O)c2cc3cc(Br)ccc3o2)c1.[Cl-] (stereo not drawn),16

# Test system: Escherichia coli
# Experiment: Antibacterial activity against Escherichia coli ATCC 25922 incubated for 18 to 24 hrs by broth microdilution method
# Assay type: functional
row,Compound,MIC [µg/mL]
1,COC(=O)c1ccc(COc2ccc(-c3nc4ccccc4c(=O)[nH]3)cc2)cc1,> 128
2,O=c1[nH]c(-c2ccc([N+](=O)[O-])cc2)nc2ccccc12,> 128
3,COC(=O)Cn1c(-c2ccco2)nc2ccccc2c1=O,> 128
4,Oc1nc(-c2ccc(F)cc2)nc2ccccc12,> 128
5,O=c1[nH]c(-c2ccc(F)c(F)c2)nc2ccccc12,> 128
6,O=c1[nH]c(-c2ccoc2)nc2ccccc12,> 128
7,Oc1nc(-c2cccs2)nc2ccccc12,> 128
8,O=c1[nH]c(-c2cccc(OCc3ccc(C(F)(F)F)cc3)c2)nc2ccccc12,> 128
9,Oc1nc(-c2ccncc2)nc2ccccc12,> 128
10,O=c1[nH]c(-c2cn3ccsc3n2)nc2ccccc12,> 128
11,O=c1[nH]c(-c2ccc(Cn3cncn3)nc2)nc2ccccc12,> 128
12,O=c1[nH]c(-c2ccc3ccccc3n2)nc2ccccc12,> 128
13,O=c1[nH]c(-c2ccc(CO)o2)nc2ccccc12,> 128
14,O=c1[nH]c(-c2ccc(O)cc2)nc2ccccc12,> 128
15,O=c1[nH]c(-c2cccc(Br)n2)nc2ccccc12,> 128
16,O=c1[nH]c(-c2cc(F)cc3c2OCOC3)nc2ccccc12,> 128

row,Compound,MIC [µg/mL]
1,O=C(O)c1ccc(COc2ccc(-c3nc4ccccc4c(=O)[nH]3)cc2)cc1,> 128
2,O=c1[nH]c(-c2cccc(Cl)c2)nc2ccccc12,> 128
3,N#Cc1cccc(-c2nc3ccccc3c(=O)[nH]2)c1,> 128
4,O=c1[nH]c(-c2ccc(N3CCOCC3)nc2)nc2ccccc12,> 128
5,Cc1ccc(COc2ccc(-c3nc4ccccc4c(=O)[nH]3)cc2)cc1,> 128
6,CC(C)n1c(-c2ccco2)nc2ccccc2c1=O,> 128
7,COC(=O)c1cccc(COc2ccc(-c3nc4ccccc4c(=O)[nH]3)cc2)c1,> 128
8,COc1ccc(-c2nc(O)c3ccccc3n2)cc1,> 128
9,O=c1[nH]c(-c2ccnc(N3CCOCC3)c2)nc2ccccc12,> 128
10,O=c1[nH]c(-c2ccc(O)cc2)nc2ccsc12,> 128
11,O=C(O)c1cccc(COc2ccc(-c3nc4ccccc4c(=O)[nH]3)cc2)c1,> 128
12,O=c1[nH]c(-c2cccc(Br)c2)nc2ccccc12,> 128
13,COc1ccc2occ(-c3nc4ccccc4c(=O)[nH]3)c(=O)c2c1,> 128
14,O=c1c2ccccc2nc(-c2ccco2)n1Cc1ccccc1,> 128
15,O=c1[nH]c(-c2ccc(-c3ccncc3)cc2)nc2ccccc12,> 128
